Biological target: T1, ALAS2 (apoALAS2) (Homo sapiens, UniProt P22557)
T1 sequence (P22557 50-587): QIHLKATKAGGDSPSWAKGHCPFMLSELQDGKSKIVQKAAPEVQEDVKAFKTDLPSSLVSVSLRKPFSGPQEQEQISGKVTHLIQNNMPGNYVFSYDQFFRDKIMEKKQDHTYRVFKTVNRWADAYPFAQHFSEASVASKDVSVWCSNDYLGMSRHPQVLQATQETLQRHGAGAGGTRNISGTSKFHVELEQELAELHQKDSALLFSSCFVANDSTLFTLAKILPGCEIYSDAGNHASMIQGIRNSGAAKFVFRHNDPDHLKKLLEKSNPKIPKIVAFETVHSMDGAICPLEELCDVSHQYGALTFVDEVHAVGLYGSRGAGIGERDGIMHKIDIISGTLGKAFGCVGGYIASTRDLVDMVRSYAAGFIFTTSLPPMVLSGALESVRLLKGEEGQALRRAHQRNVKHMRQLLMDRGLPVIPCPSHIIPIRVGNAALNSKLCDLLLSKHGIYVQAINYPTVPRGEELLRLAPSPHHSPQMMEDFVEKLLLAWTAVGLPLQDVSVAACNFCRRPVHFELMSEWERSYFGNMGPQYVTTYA
Assay: PLP reactivation of apoenzyme, NAD-coupled ALAS assay
Format: biochemical
Conditions: apoALAS2 5 µM, PLP 50 µM, pH 7.6, 30 °C, 5 mM MgCl2, 130 mM KCl, 0.75 mg/ml BSA; covalent

- PLP reactivation of apoenzyme, NAD-coupled ALAS assay: apoALAS2 activation by PLP in vitro.
SMILES: Cc1ncc(COP(=O)(O)O)c(C=O)c1O [pyridoxal phosphate]

Source: PMC4467794 (Cell, 2015)
